Values after ≈ are worked out from the molar mass of the structure shown.
details: buffer; pH 7.4; 200.0 µM

Row | solubility kinetic [µg/mL] | SMILES
1 | 15.8 (≈ 46 µM) | CCOc1c(C)cnc2c1c(=O)n(Cc1ccccc1F)c(=O)n2C
2 | > 38.5 | CCC(C)[C@H](NC(=O)N1CCCCC1)C(=O)OC (stereo not given in full)
3 | 6.6 (≈ 24.3 µM) | COc1ccc(Nc2ncc(C#N)c(N)n2)c(OC)c1
4 | 46.1 | CCOc1c(Cl)cc(CNCc2ccncc2)cc1OC.Cl
5 | > 32.7 | COCCn1c(C(C)C)nc2ccccc21
6 | > 53.3 | Cc1nc(=O)c(-c2ccccc2)c(C)n1-c1ccc(Br)cc1
7 | 4.5 (≈ 17.8 µM) | Cc1cccc(Cn2c(=O)oc3ccc(C)cc32)c1
8 | 23.6 (≈ 113 µM) | NC12CC3CC(C1)CC(CC(=O)O)(C3)C2
9 | 35.9 (≈ 130 µM) | CCOC(=O)Oc1ccc(/C=C2\N=C(C)OC2=O)cc1
10 | > 44 | COc1cc(/C=C2/CC(C)OC2=O)c([N+](=O)[O-])cc1OC (stereo not given)
11 | 10.5 (≈ 21.1 µM) | O=C(COC(=O)c1ccc(C(F)(F)F)cc1)Nc1cccc(S(=O)(=O)NC2=NCCCCC2)c1
12 | 0.4 (≈ 1.27 µM) | COC(OC)c1ccc(C#N)c(SCc2ccc(C)cc2)n1
13 | > 75.5 | CN(C(=O)COC(=O)c1ccc(Br)c(S(=O)(=O)N2CCOCC2)c1)C1CCCCC1
14 | 34.2 | CC1(C)CC(NCc2ccccc2)CCO1.Cl (stereo not given)
15 | 29.2 (≈ 96.3 µM) | COc1ccc(N2C(=O)CSC2c2cccc(F)c2)cc1 (stereo not given)
16 | > 49 | CC1CN(C(=O)COC(=O)c2ccc(Cl)c(N)c2)CC(C)O1 (stereo not given)
17 | 21 (≈ 73 µM) | Clc1ccc(CN2CCN(c3ccccc3)CC2)cn1
18 | 2.8 (≈ 5.94 µM) | CCN(C(=O)CSc1nc2ccccc2c(=O)n1-c1cccc(C)c1)C1CCS(=O)(=O)C1 (stereo not given)
19 | 3.6 (≈ 12.8 µM) | O=c1[nH]c2ccccc2nc1Cc1ccc([N+](=O)[O-])cc1
20 | 1.3 (≈ 4.81 µM) | CCC(C)c1ccc(NC(=O)Nc2cnccn2)cc1 (stereo not given)
21 | 4.4 (≈ 12.6 µM) | Cc1c(F)cccc1NC(=O)c1ccc2c(c1)CCN2S(C)(=O)=O

Row | solubility kinetic [µg/mL] | SMILES
22 | 8.1 (≈ 42.6 µM) | Cc1cccnc1NC1CCCCC1
23 | 48.3 (≈ 142 µM) | Cc1ccc2nc(SCC(=O)NC3CCS(=O)(=O)C3)[nH]c2c1 (stereo not given)
24 | 30.6 | Cl.O=C(Nc1ccccc1)N1CCNCC1
25 | 28.2 (≈ 114 µM) | S=C(NCc1ccccc1)NCc1ccco1
26 | 4.5 (≈ 14.6 µM) | CC(C)CNc1nc(N)c([N+](=O)[O-])c(N2CCCCCC2)n1
27 | 8.6 (≈ 24.8 µM) | O=C(CN1CCCC1)Nc1ccccc1Sc1ccc(Cl)cc1
28 | 14.3 (≈ 34.5 µM) | COCCCN(C(=O)C1CCCCC1)c1c(N)n(Cc2ccccc2)c(=O)[nH]c1=O
29 | > 43.2 | CC1SCC(NC(=O)c2cccc(Cl)c2)CS1 (stereo not given)
30 | 44.1 (≈ 140 µM) | Cc1ccc(C(=O)NCCCNC(=O)c2ccccc2F)cn1
31 | 4.7 (≈ 12.4 µM) | COc1cc2c(cc1OC)C(C)N(C(=O)c1cc3c(C)cc(C)cc3[nH]1)CC2 (stereo not given)
32 | 25.3 (≈ 108 µM) | O=C(Nc1ccc(F)cc1)C1CC2CCC1C2 (stereo not given)
33 | 3.4 (≈ 9.7 µM) | Cc1cccc(NC(=O)c2ccc(OCc3c(C)noc3C)cc2)c1C
34 | 12.1 (≈ 44.3 µM) | COc1cccc(-c2nc(=S)c3c(o2)CCCC3)c1
35 | 41 (≈ 129 µM) | CCOC(=O)Cc1csc(NC(=O)CCc2ccccc2)n1
36 | 4.3 (≈ 12.1 µM) | CCCCC(=O)Nc1ccccc1N1CCN(c2ccc(F)cc2)CC1
37 | > 32.7 | Nc1ccc(NC(=O)c2cccs2)cc1
38 | 0.7 (≈ 2.39 µM) | CCc1ccc(NC(=O)CCc2nc3ccccc3[nH]2)cc1
39 | 7.2 (≈ 21.2 µM) | COc1cc([N+](=O)[O-])ccc1N1C(=O)C2C3C=CC(C4CC34)C2C1=O (stereo not given)
40 | > 64.3 | COc1ccc(NC(=O)c2c(F)cccc2Cl)cc1S(=O)(=O)N1CCOCC1
41 | > 42.2 | O=C(Nc1ccncc1)c1ccc(N2CCCC2=O)cc1
42 | 1.2 (≈ 3.56 µM) | CSc1nc2c(c(=O)[nH]c(=O)n2C)n1Cc1ccc(Cl)cc1

Row | solubility kinetic [µg/mL] | SMILES
43 | 1.4 (≈ 3.92 µM) | COc1ccc(N2C(=O)CS/C2=N\C(=S)Nc2ccccc2)cc1
44 | > 40.7 | CCOC(=O)c1cnc(SCC(=O)OC)nc1N
45 | > 48.4 | CN1C(=O)N(CC(=O)Nc2nccs2)C(=O)C12CCCCC2
46 | 39 (≈ 103 µM) | COc1ccc(-c2nc(CN3CCN(c4ncccn4)CC3)c(C)o2)cc1C
47 | 5 (≈ 16.8 µM) | COc1cc2ccccc2cc1C(=O)NC1CCC(C)CC1 (stereo not given)
48 | < 0.3 | Cc1ccc(C#N)c(SCc2cccc(Br)c2)n1
49 | 23.5 (≈ 76 µM) | Cc1onc(-c2ccccc2)c1C(=O)Nc1sccc1C#N
50 | 3.8 (≈ 11.6 µM) | COc1ccc(N2CCCC2)c(NC(=O)COc2ccccc2)c1
51 | 34.9 (≈ 141 µM) | CC(C)C1CC(C(=O)Nc2ccccc2)C(=O)O1 (stereo not given)
52 | 15.2 (≈ 50.8 µM) | COc1ccc(C(=O)NC(C)CCc2ccccc2)c(O)c1 (stereo not given)
53 | 4.7 (≈ 14.8 µM) | C/C(N)=C(/C#N)C(=O)COC(=O)c1cc2c(s1)CCC(C)C2 (stereo not given)
54 | 14.3 (≈ 45.2 µM) | O=C(OCN1C(=O)c2ccccc2C1=O)c1ccc(Cl)nc1
55 | > 42.5 | CN(Cc1nc(-c2ccccc2)no1)C(=O)c1ccco1
56 | > 41.5 | Cc1ccc(C(=O)NCCCN2CCOCC2)c(C)c1
57 | < 0.6 | CCOC(=O)c1cc2c(=O)c3cc(C)ccc3oc2nc1C
58 | 39.2 (≈ 138 µM) | O=C(CN1CCc2ccccc2C1)Nc1ccc(F)cc1
59 | > 43 | Cc1cccc(CNC(=O)C2CCC(=O)N(C3CC3)C2)c1 (stereo not given)
60 | 47.2 (≈ 139 µM) | CCOC(=O)Nc1ccc(S(=O)(=O)Nc2onc(C)c2C)cc1
61 | 7.9 (≈ 23.8 µM) | O=c1c2ccccc2nc(-c2ccco2)n1CCc1ccc(O)cc1
62 | > 50.4 | Cc1ccc(Cl)cc1NC(=O)CN1C(=O)NC(C)(C2CC2)C1=O (stereo not given)
63 | > 38.9 | COc1ccc(NC(=O)CC(C)n2ccnc2)cc1 (stereo not given)

Row | solubility kinetic [µg/mL] | SMILES
64 | 0.4 (≈ 1.26 µM) | C=CCNc1nc(N)c([N+](=O)[O-])c(Nc2ccccc2OC)n1
65 | > 50.5 | NS(=O)(=O)c1ccc(N2CCN(C(=O)c3ccco3)CC2)nc1
66 | 5.8 (≈ 20.3 µM) | Cc1cc(C)nc(NC(=S)NC(=O)c2ccccc2)n1
67 | 54.2 (≈ 128 µM) | Cc1cc(C)cc(NS(=O)(=O)c2ccc(NC(=O)c3ccccc3C(=O)O)cc2)c1
68 | > 47.1 | C=CCNC(=O)C12CCC(C)(C(=O)[C@H]1Br)C2(C)C (stereo not given in full)
69 | > 37.8 | Cc1nc(NC(=O)c2ccco2)sc1C(=O)O
70 | 5.4 (≈ 18.1 µM) | NC(=O)c1ccc(Oc2ccc3c(c2)CCC3)c([N+](=O)[O-])c1
71 | > 37.4 | CN1CCC(=NOc2ccc([N+](=O)[O-])cc2)CC1
72 | 1.9 (≈ 6.5 µM) | c1ccc(CO/N=C(\c2ccc(C3CC3)nc2)C2CC2)cc1
73 | 49.8 (≈ 149 µM) | N#Cc1cccc(NC(=O)CN2CCN(Cc3ccccc3)CC2)c1
74 | > 39.5 | CC1(C)Cc2nc3[nH]c(=S)[nH]c(=O)c3cc2CO1
75 | 10.9 (≈ 35.2 µM) | COc1cccc(OCCn2cc(C(C)=O)c3ccccc32)c1
76 | 11.4 (≈ 22.8 µM) | CCOc1cc(C(=O)OC(C(=O)NC(=O)NC)c2ccccc2)ccc1OCC(=O)N1CCOCC1 (stereo not given)
77 | 1.1 (≈ 3.52 µM) | COc1ccc(-c2ncncc2-c2ccc(Cl)cc2)c(O)c1
78 | 25.9 (≈ 116 µM) | Cn1c(Nc2ccccc2)nc2ccccc21
79 | 5 (≈ 16.4 µM) | CCOC(=O)c1[nH]cnc1C(=O)Nc1ccc([N+](=O)[O-])cc1
80 | 43.2 (≈ 124 µM) | CCN(C(=O)COc1ccc(C(C)=O)cc1)c1cccc2ccccc12
81 | 45.6 (≈ 146 µM) | Cc1ccc(C(=O)NCCONC(=O)c2ccc(C)cc2)cc1
82 | > 50 | CNC(=S)NC1CC2CCCC(C1)N2Cc1ccccc1OC (stereo not given)
83 | > 42.7 | COc1ccc(S(=O)(=O)N2CCCCCC2)cc1N
84 | 3 (≈ 8.71 µM) | COC(=O)c1ccc(/C=C/C(=O)OCC(=O)Nc2cc(C)on2)cc1

Row | SMILES | solubility kinetic [µg/mL]
85 | CC(NC1=NCCS1)c1ccccc1 (stereo not given) | 30.4 (≈ 147 µM)
